Laboratory results reported in patent US20200131156A1, “ARYLSULFONYLPYROLECARBOXAMIDE DERIVATIVES AS Kv3 POTASSIUM CHANNEL ACTIVATORS” (H. Lundbeck A/S, priority 2018, published 2020).

Experiments:
[1] = molecular target: hNav1.1 (Homo sapiens, UniProt P35498); experiment: Off-target Nav1.1 electrophysiology (Qpatch), multiple state readouts; type: cell-based; conditions: resting, use-dependent and inactivated state readouts, up to 30 μM; for EC50: activation; for IC50: inhibition
Description: The activity of selected compound examples at three key ion channel off targets was measured, namely Nav1.1, Kv1.1/1.2 and Kv7.2/7.3.
The voltage gated sodium channel, Nav1.1, is known to have state-dependent pharmacology, therefore, compound examples were tested for effects on inhibition or activation at the resting state channel, a use-dependent readout, and an inactivated state readout by electrophysiology, at concentrations up to 30 μM.

[2] = molecular target: T1, human Kv3.3 (Homo sapiens, UniProt Q14003); experiment: Manual patch clamp electrophysiology, HEK-293 cells stably expressing human Kv3.3; type: cell-based; conditions: for hKv3.3 ECΔ30% increase: concentration increasing current by 30% at the −10 mV step; for hKv3.3 ECΔ5 mV: concentration that shifts activation threshold by 5 mV
T1 construct: expressed in transfected cells
T1 sequence (Q14003 1-757): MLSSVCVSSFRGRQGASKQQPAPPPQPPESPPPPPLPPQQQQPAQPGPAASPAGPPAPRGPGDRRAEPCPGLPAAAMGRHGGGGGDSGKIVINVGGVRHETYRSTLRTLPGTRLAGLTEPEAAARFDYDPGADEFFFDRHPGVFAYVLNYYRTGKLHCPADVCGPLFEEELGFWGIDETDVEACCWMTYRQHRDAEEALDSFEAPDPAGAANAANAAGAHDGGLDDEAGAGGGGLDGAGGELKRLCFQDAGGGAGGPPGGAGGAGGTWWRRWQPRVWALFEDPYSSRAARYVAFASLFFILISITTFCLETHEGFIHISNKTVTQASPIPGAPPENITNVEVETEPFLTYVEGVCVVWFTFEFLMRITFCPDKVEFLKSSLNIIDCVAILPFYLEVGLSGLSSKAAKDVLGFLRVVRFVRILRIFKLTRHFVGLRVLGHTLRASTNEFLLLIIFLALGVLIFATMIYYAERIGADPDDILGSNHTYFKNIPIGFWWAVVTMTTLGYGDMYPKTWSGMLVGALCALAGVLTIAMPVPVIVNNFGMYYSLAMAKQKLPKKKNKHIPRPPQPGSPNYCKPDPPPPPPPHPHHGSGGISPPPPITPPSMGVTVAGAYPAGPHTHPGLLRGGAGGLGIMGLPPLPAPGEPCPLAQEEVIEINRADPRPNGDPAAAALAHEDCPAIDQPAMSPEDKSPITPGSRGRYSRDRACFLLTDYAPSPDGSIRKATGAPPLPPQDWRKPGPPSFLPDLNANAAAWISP
Description: Manual Patch Clamp Electrophysiological Evaluation, hKv3.1, hKv3.2, hKv3.3, hKv3.4:
HEK-293 cells stably expressing human Kv3.1b, Kv3.2, Kv3.3 or Kv3.4 were used for the experiments.
Kv3.1b, Kv3.2: Cells were cultured in MEM medium supplemented with 10% Fetal Bovine Serum, 1% Penicillin/Streptomycin, 2 mM glutamine and 0.6 mg/mL geneticin. Cells were grown to 80-90% confluency at 37° C. and 5% CO2 Kv3.3 or Kv3.4: Cells were cultured in DMEM medium supplemented with 10% Fetal Bovine Serum, 500 ug/mL Geneticidin and 1% Penicillin/Streptomycin. Cells were grown to 80-90% confluency at 37° C. and 5% CO2.
On the day of the experiment the cells were detached by TrypLE and resuspended in culture medium. Cells were centrifuged, media removed and the cells were resuspended in extracellular buffer containing (in mM): 130 Na-gluconate, 20 NaCl, 4 KCl, 1 MgCl2, 1.8 CaCl2, 10 HEPES and 5 glucose, pH 7.3 adjusted with NaOH, 310-320 mOsm
Patch-clamp recordings were performed using a manual patch-clamp system (Axon Multiclamp 700B, Digidata 1440, pCLAMP 10, Molecular Devices Corporation) with a fast perfusion system (RSC-160 Rapid solution Changer, BioLogic). Whole-cell recordings were carried out using an intracellular solution containing (in mM): 100 K-gluconate, 40 KCl, 10 HEPES, 1 EGTA, 1 MgCl2, pH 7.2 adjusted with KOH, 290-300 mOsm. Cell membrane potentials were held at −80 mV and current voltage-relationship was generated by voltage steps (50 ms duration) from −100 mV to +10 mV (in 10 mV increments) and then back to −100 mV for 50 ms, with inter-sweep interval of 3 s. The peak current amplitude of −10 mV was monitored until stable (<5% change) by using one step voltage protocol. One IV protocol was run as baseline, then compound perfusion was stared and peak current stability was monitored with single step protocol prior to the IV protocol. Single concentrations were measured per cell. Acceptable cells had seal resistance >500 MOhm, Access resistance <10 MOhm, and leak current <200 pA.
Data analysis was performed using Clampfit (V10.2) in combination with Microsoft Excel™ (Redmond, Wash., USA). Current voltage relationships were plotted from the peak current (baseline subtracted) at the individual voltage steps normalized to the vehicle addition at 10 mV. The voltage threshold for channel activation was defined as 5% activation of the peak current at 10 mV in presence of vehicle. […] The concentration needed to shift the threshold 5 mV was readout from this curve (ECΔ5 mV), as well as the ability to increase the peak current at the −10 mV step (EC30% increase). […]

[3] = Unbound fraction in brain; type: in vitro ADME, rat

SMILES | EC50 [1] | IC50 [1] | hKv3.3 ECΔ30% increase [2] | hKv3.3 ECΔ5 mV [2] | fraction unbound ([3]; rat table footnote) | fraction unbound ([3]; rat PK table footnote)
Cc1ccc(S(=O)(=O)n2ccc(C(=O)NCc3ncco3)c2)cc1 [Compound 86, 1-(4-methylbenzene-1-sulfonyl)-N-[(1,3-oxazol-2-yl)methyl]-1H-pyrrole-3-carboxamide] | > 30 µM | > 30 µM | >30 µM | 4.9 µM | 0.12 | –
Cc1cnc(CNC(=O)c2ccn(S(=O)(=O)c3ccc(F)cc3C)c2)cn1 [Compound 90, 1-(4-fluoro-2-methylbenzene-1-sulfonyl)-N-[(5-methylpyrazin-2-yl)methyl]-1H-pyrrole-3-carboxamide] | > 30 µM | > 30 µM | 2.7 µM | 2.7 µM | – | 0.08
